Data: patent publication US11161845B2, “Pyrrolopyridine-aniline compounds for treatment of dermal disorders” (Nflection Therapeutics, Inc., priority 2017, dated 2021)
Like-named read-outs stand apart in the source and are kept apart here.

What was measured:
[1] = target: T1, MEK1 (Homo sapiens, UniProt Q02750); experiment: MEK inhibition assay, Biological Example 1a (33P-ATP, P81 filter-binding); details: read-out: Assay 1: biochemical MEK IC50
T1 construct: N-terminal His-tagged recombinant human full length protein; His (N); purchased Invitrogen PV3303; host or cells: insect cells
Method: MEK1 inhibitory activity of compounds were tested using the following procedure. […] Activated in vitro by RAF1. MW=49.2 kDa, GenBank Accession No. NP_002746. • Substrate: 5 μM ERK2 (K52R), • Kinase-dead mutant, (GenBank Accession No. NM_0011949), aa2-358 with N-terminal His6 tag, MW=43.63 kDa, expressed in E. coli.
The substrate was prepared in freshly prepared Reaction Buffer. The kinase was delivered into the substrate solution and gently mixed. Test compounds were delivered in 100% DMSO into the kinase reaction mixture by Acoustic technology (Echo550; nanoliter range), and incubated for 20 min at room temperature. ^33P-ATP was delivered into the reaction mixture to initiate the reaction. The reaction mixture was incubated for 2 hours at room temperature. Kinase activity was detected by P81 filter-binding method.

[2] = tested on: A375 cells; experiment: A375 (BRAF) GI50 cell-based assay (Cell Titer-Glo); details: Homo sapiens, A-375; 72 hours; read-out: Assay 2: A375 (BRAF) GI50
Method: (§1) Alternatively, the following procedure can be used to measure cell-based activity. Test compounds were dissolved in DMSO in 10 mM stock. Cell Titer-Glo® 2.0 Luminescent cell viability assay reagent was purchased from Promega (Madison, Wis.). A375 and HCT116 cell lines were purchased from American Type Culture Collection (Manassas, Va.). For A375 cells, cell culture media was DMEM+10% FBS. For HCT116 cells, cell culture media was McCoy's 5A+10% FBS. All media were supplemented with 100 μg/mL of penicillin, and 100 μg/mL of streptomycin. Cultures were maintained at 37° C. in a humidified atmosphere of 5% CO2 and 95% air.
(§2) Test compounds were diluted in DMSO solution with 10-dose and 3-fold dilutions in a source plate starting at 10 mM. 25 nL of each test compound was delivered from the source plate to each well of the 384-well cell culture plates (T=Final) by Echo 550. 25 μL of culture medium containing 2000 of A375 or HCT116 cells was added to each of the wells in duplicates of the cell culture plates (T=0 and T=Final). 25 μL of Cell Titer Glo 2.0 reagent was added to each well of cell culture plate (T=0). The contents were mixed on an orbital shaker for 2 min and incubated at room temperature for 15 min to stabilize luminescent signal. Luminescence was recorded by Envision 2104 Multilabel Reader (PerkinElmer, Santa Clara, Calif.). The number of viable cells in culture was determined based on quantitation of the ATP present in each culture well. The cells in cell culture plate (T=Final) were incubated with the compounds at 37° C., 5% CO2 for 72 hours. 25 μL of Cell Titer Glo 2.0 reagent was added to each well. The contents were mixed on an orbital shaker for 2 min and incubated at room temperature for 15 min to stabilize luminescent signal. Luminescence was recorded by Envision 2104 Multilabel Reader (PerkinElmer, Santa Clara, Calif.). The number of viable cells in culture was determined based on quantitation of the ATP present in each culture well. The G150 curves were plotted using the GraphPad Prism 4 program based on a sigmoidal dose-response equation Y=Bottom+(Top−Bottom)/(1+10^((Log EC50−X)*HillSlope)). All parameters in the equation were calculated by GraphPad Prism 4 program. […] Accordingly, GI50 is the value of 10^X, where X was calculated by the Curve Fitting Equation when Y=50 using Excel.

[3] = tested on: HCT116 cells; experiment: HCT116 (Kras) GI50 cell-based assay (Cell Titer-Glo); details: Homo sapiens, HCT-116; 72 hours; read-out: Assay 3: HCT116 (Kras) GI50
Method: as §1, §2

[4] = S9 stability assay, human liver S9 fraction; format: in vitro ADME; details: for half-life at 1 μM / microsomal CLint at 1 μM: pH 7.4
Method: Compounds were assessed for metabolic stability in human skin by assessing their rate of disappearance from human S9 skin fraction. Similarly, compounds were assessed for metabolic stability in human liver by assessing their rate of disappearance from human S9 liver fraction. The protocol below can be used to assess the difference between skin and hepatic metabolism.
The assay was carried out in 96-well microtiter plates at 37° C. Reaction mixtures (25 μL) contained a final concentration of 1 μM test compound, 2 mg/mL liver or skin S9 protein, and 1 mM NADPH in buffer (100 mM potassium phosphate, pH 7.4 buffer with 1 mM EDTA, 3 mM MgCl2). At each of the time points (0, 15, 30, and 60 minutes), 150 μL of quench solution (100% acetonitrile with 0.1% formic acid) with internal standard was transferred to each well. Besides the zero minute controls, mixtures containing the same components except the NADPH were also prepared as the negative control. Verapamil or testosterone was included as a positive control to verify assay performance. Plates were sealed and centrifuged at 4° C. for 15 minutes at 4000 rpm. The supernatant was transferred to fresh plates for LC/MS/MS analysis.
All samples were analyzed on LC/MS/MS using an AB Sciex API 4000 instrument, coupled to a Shimadzu LC-20AD LC Pump system. Analytical samples were separated using a Waters Atlantis T3 dC18 reverse phase HPLC column (20 mm×2.1 mm) at a flow rate of 0.5 mL/min. The mobile phase consisted of 0.1% formic acid in water (solvent A) and 0.1% formic acid in 100% acetonitrile (solvent B).
The extent of metabolism was calculated as the disappearance of the test compound, compared to the 0-min control reaction incubations. Initial rates were calculated for the compound concentration and used to determine t1/2 values and subsequently, the intrinsic clearance, CLint=(0.693) (1/t1/2 (min)) (mL incubation/mg of S9 protein).

[5] = target: T2, MAP2K1 (MEK1) (Homo sapiens, UniProt Q02750); experiment: MEK inhibition assay, Biological Example 1b (Z'-LYTE); details: Biological Example 1b (compounds 8, 10, 12 and 13); read-out: Assay 1: biochemical MEK IC50
T2 construct: purchased ThermoFisher
Method: MEK1 inhibitory activity of compounds were tested using the following procedure (protocol available at thermofisher.com/content/dam/LifeTech/migration/files/drug-discovery/pdfs.par.60256.file.dat/20130430%20ssbk%20customer %20protocol%20and %20assay%20conditions.pdf). The Z′-LYTE biochemical assay (ThermoFisher) employs a fluorescence-based, coupled-enzyme format and is based on the differential sensitivity of phosphorylated and non-phosphorylated peptides to proteolytic cleavage.
Test compounds in 100% DMSO were screened in 1% DMSO (final) in the well. For 10 point titrations, 3-fold serial dilutions are conducted from the starting concentration of 30 μM.
After the 1 hour incubation, 5 μL of a 1:1024 dilution of Development Reagent A (available from Invitrogen, catalog no. PV3295) was added.
ATP solutions were diluted to a 4× working concentration in Kinase Buffer (50 mM HEPES pH 7.5, 0.01% BRIJ-35, 10 mM MgCl2, 1 mM EGTA). ATP Km apparent was previously determined using a Z′-LYTE assay. The Development Reagent was diluted in Development Buffer (available from Invitrogen, catalog no. P3127).
Assay Protocol: 2.5 μL of 4× test compound or 100 nL of 100× Test Compound plus 2.4 μL Kinase Buffer, 5 μL of the 2× Peptide/Kinase Mixture, 2.5 μL of 4×ATP Solution were added to the plates and placed on a shake plate for 30-seconds. The kinase reaction was allowed to proceed for 60-minute at room temperature, before 5 μL of Development Reagent Solution was added, and the mixture agitated for 30-seconds on a shake plate. The mixture was incubated for 60-minute at room temperature. Fluorescence was measured using a plate reader and the data were analyzed.
This control yielded 100% cleaved peptide in the Development Reaction. The 100% Phosphorylation Control, which consisted of a synthetically phosphorylated peptide of the same sequence as the peptide substrate, was designed to allow for the calculation of percent phosphorylation. This control yielded a very low percentage of cleaved peptide in the Development Reaction. The 0% Phosphorylation and 100% Phosphorylation Controls allow for the calculation of the percent phosphorylation achieved in a specific reaction well.
The minimum emission ratio in a screen was established by the 0% Inhibition Control, which contained active kinase. This control was designed to produce a 10-50% phosphorylated peptide in the Kinase Reaction. […]
A known inhibitor control standard curve, 10 point titration, was run for each individual kinase on the same plate as the kinase to ensure the kinase was inhibited within an expected IC50 range previously determined.
The following controls are prepared for each concentration of Test Compound assayed. […] The expected value for a non-fluorescence compound should be 0%. […]
The data in Table A was calculated. […]

[6] = human, liver S9 fraction, Table 2, 1 μM, 2 mg/mL S9 protein, NADPH, read-out: Assay 4: human liver S9 half-life
[7] = human, liver S9 fraction, Table 2, 1 μM, 2 mg/mL S9 protein, NADPH, read-out: Assay 5: human liver S9 instrinsic clearance value

T2 sequence (Q02750 whole entry): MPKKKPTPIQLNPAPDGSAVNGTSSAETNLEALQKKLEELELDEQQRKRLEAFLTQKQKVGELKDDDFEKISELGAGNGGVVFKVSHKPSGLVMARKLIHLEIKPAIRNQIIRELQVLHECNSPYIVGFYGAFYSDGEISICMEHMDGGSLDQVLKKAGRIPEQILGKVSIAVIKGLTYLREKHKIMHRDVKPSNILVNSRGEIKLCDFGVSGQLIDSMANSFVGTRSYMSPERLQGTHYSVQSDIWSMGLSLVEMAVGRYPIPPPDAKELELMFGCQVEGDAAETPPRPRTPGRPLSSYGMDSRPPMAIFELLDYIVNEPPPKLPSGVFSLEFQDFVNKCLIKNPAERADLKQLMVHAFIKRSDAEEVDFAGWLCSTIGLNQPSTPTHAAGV
T1 sequence (Q02750 whole entry): as above

Structure (SMILES)	IC50 [1]	GI50 [2]	GI50 [3]	half-life at 1 μM [4, 6]	microsomal CLint at 1 μM [4, 7]	Assay 5: human liver S9 instrinsic clearance value ([4]; Table 2, 1 μM, 2 mg/mL S9 protein, NADPH)	microsomal CLint at 1 μM ([4]; Table 1, human liver S9 fraction, read-out: CLint)	half-life at 1 μM ([4]; Table 1, human liver S9 fraction, read-out: Liver S9 t1/2)	IC50 [5]
Cn1c(Nc2ccc(I)cc2F)c(C(=O)NO)c2cccnc21 [Example 4, 2-((2-Fluoro-4-iodophenyl)amino)—N-hydroxy-1-methyl-1H-pyrrolo[2,3-b]pyridine-3-carboxamide]	671 nM	809 nM	5010 nM	21 min	16.5 µL/min/mg				
Cn1c(Nc2ccc(I)cc2F)c(C(=O)NOC[C@H](O)CO)c2cccnc21 [Example 6, (R)—N-(2,3-Dihydroxypropoxy)-2-((2-fluoro-4-iodophenyl)amino)-1-methyl-1H-pyrrolo[2,3-b]pyridine-3-carboxamide]	371 nM	81 nM	448 nM	90 min	3.85 µL/min/mg				
Cn1c(Nc2ccc(I)cc2F)c(C(=O)NOCC2CC2)c2cccnc21 [Example 7, N-(Cyclopropylmethoxy)-2-((2-fluoro-4-iodophenyl)amino)-1-methyl-1H-pyrrolo[2,3-b]pyridine-3-carboxamide]	260 nM	346 nM	346 nM			44.80 μL/min/mg protein	44.8 µL/min/mg	8 min	
COc1cnc2c(c1)c(C(=O)NOCCO)c(Nc1ccc(I)cc1F)n2C [Example 8, 2-((2-Fluoro-4-iodophenyl)amino)—N-(2-hydroxyethoxy)-5-methoxy-1-methyl-1H-pyrrolo[2,3-b]pyridine-3-carboxamide]				34 min	10.3 µL/min/mg				243 nM
Cn1c(Nc2ccc(I)cc2F)c(C(=O)NC[C@H](O)CO)c2cccnc21 [Example 10, (S)—N-(2,3-dihydroxypropyl)-2-((2-fluoro-4-iodophenyl)amino)-1-methyl-1H-pyrrolo[2,3-b]pyridine-3-carboxamide]				96 min	3.59 µL/min/mg				1770 nM
Cn1c(Nc2ccc(I)cc2F)c(C(=O)NC[C@@H](O)CO)c2cccnc21 [Example 12, (R)—N-(2,3-dihydroxypropyl)-2-((2-fluoro-4-iodophenyl)amino)-1-methyl-1H-pyrrolo[2,3-b]pyridine-3-carboxamide]				105 min	3.29 µL/min/mg				1780 nM
Cn1c(Nc2ccc(I)cc2F)c(C(N)=O)c2cccnc21 [Example 13, 2-(2-Fluoro-4-iodoanilino)-1-methyl-1H-pyrrolo[2,3-b]pyridine-3-carboxamide]				23 min	15.4 µL/min/mg				9610 nM
